From US20220073536A1 (Rigel Pharmaceuticals, Inc., priority 2003, published 2022)
Where a name gives a salt, the structure may show the parent alone. Read-outs that look alike come from different tables or passages of the source.

Test system: cultured human mast cells (CHMC)
Assay: CHMC low cell density IgE activation: tryptase assay
Assay type: cell-based
Outline: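 Tryptase release, fluorogenic substrate, 30 min RT. Prior anti-IgE stimulation of CHMC, 30 min, 37 °C, after 1 hr preincubation at 1000–1500 cells/well in MT; unstimulated wells received MT.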

[1] = Homo sapiens, Mast cell, low cell density, IgE activation, 3 pt, read-out: LD Tryptase, CHMC, IgE, 3 pt
[2] = Homo sapiens, Mast cell, low cell density, IgE activation, 8 pt, read-out: LD Tryptase, CHMC, IgE, 8 pt
[3] = low cell density, IgE activation, 3 pt, read-out: LD Tryptase, CHMC, IgE, 3 pt
[4] = low cell density, IgE activation, 8 pt, read-out: LD Tryptase, CHMC, IgE, 8 pt

SMILES	IC50 [2] [µM]	IC50 [3] [µM]	IC50 [4] [µM]	other results
C[C@@H]1Oc2ccc(Nc3nc(Nc4ccc5c(c4)nc(C(F)(F)F)n5CCCO)ncc3F)cc2NC1=O [Compound 940]	< 10	–	–	IC50 [1]: < 10 µM
CC1(C)Oc2ccc(Nc3nc(Nc4ccc5c(c4)nc(C(F)(F)F)n5CCCO)ncc3F)nc2NC1=O [Compound 941, N4-(2,2-Dimethyl-3-oxo-4H-5-pyrido[1,4]oxazin-6-yl)-5-fluoro-N2-[1-(3-hydroxypropyl)-2-trifluoromethylbenzimidazol-5-yl]-2,4-pyrimidinediamine]	–	< 10	< 10	–
C[C@@H]1Oc2ccc(Nc3nc(Nc4ccc5c(c4)nc(N4CCOCC4)n5C)ncc3F)cc2NC1=O [Compound 945, (S)-5-Fluoro-N2-[1-methyl-2-(4-morpholino)benzimidazol-5-yl]-N4-(2-methyl-3-oxo-2H,4H-benz[1,4]oxazin-6-yl)-2,4-pyrimidinediamine]	–	< 10	< 10	–
Cn1c(N2CCOCC2)nc2cc(Nc3ncc(F)c(Nc4ccc5c(n4)NC(=O)C(C)(C)O5)n3)ccc21 [Compound 946, N4-(2,2-Dimethyl-3-oxo-4H-5-pyrido[1,4]oxazin-6-yl)-5-fluoro-N2-[1-methyl-2-(4-morpholino)benzimidazol-5-yl]-2,4-pyrimidinediamine]	–	< 10	< 10	–
Cc1nc2cc(Nc3ncc(F)c(Nc4ccc(Cl)c(Cl)c4)n3)ccc2n1CCCO [Compound 947]	< 10	–	–	–
COc1ccc(Nc2nc(Nc3ccc4c(c3)nc(C)n4CCCO)ncc2F)cc1Cl [Compound 948]	< 10	–	–	–
Cc1nc2cc(Nc3ncc(F)c(Nc4ccc5c(c4)NC(=O)C(C)(C)O5)n3)ccc2n1CCCO [Compound 949]	< 10	–	–	–
Cc1nc2cc(Nc3ncc(F)c(Nc4ccc5c(c4)NC(=O)[C@H](C)O5)n3)ccc2n1CCCO [Compound 950]	< 10	–	–	–
Cc1nc2cc(Nc3ncc(F)c(Nc4ccc5c(n4)NC(=O)C(C)(C)O5)n3)ccc2n1CCCO [Compound 951, N4-(2,2-Dimethyl-3-oxo-4H-5-pyrido[1,4]oxazin-6-yl)-5-fluoro-N2-[1-(3-hydroxypropyl)-2-methylbenzimidazol-5-yl]-2,4-pyrimidinediamine]	–	< 10	< 10	–
CC(=O)NCCCn1c(C)nc2cc(Nc3ncc(F)c(Nc4ccc5c(c4)NC(=O)C(C)(C)O5)n3)ccc21 [Compound 952]	< 10	–	–	IC50 [1]: < 10 µM
CC(=O)NCCCn1c(C)nc2cc(Nc3ncc(F)c(Nc4ccc5c(n4)NC(=O)C(C)(C)O5)n3)ccc21 [Compound 953, N2-[1-[3-(N-Acetylamino)propyl]-2-methylbenzimidazol-5-yl]-N4-(2,2-Dimethyl-3-oxo-4H-5-pyrido[1,4]oxazin-6-yl)-5-fluoro-2,4-pyrimidinediamine]	–	< 10	< 10	–
Cn1c(CN2CCOCC2)nc2cc(Nc3ncc(F)c(Nc4ccc(Cl)c(Cl)c4)n3)ccc21 [Compound 954, N4-(3,4-Dichlorophenyl)-5-fluoro-N2-[1-methyl-2-(4-morpholinomethyl)benzimidazol-5-yl]-2,4-pyrimidinediamine]	–	< 10	< 10	–
COc1ccc(Nc2nc(Nc3ccc4c(c3)nc(CN3CCOCC3)n4C)ncc2F)cc1Cl [Compound 955, N4-(3-Chloro-4-methoxyphenyl)-5-fluoro-N2-[1-methyl-2-(4-morpholinomethyl)benzimidazol-5-yl]-2,4-pyrimidinediamine]	–	–	< 10	–
Cn1c(CN2CCOCC2)nc2cc(Nc3ncc(F)c(Nc4ccc5c(c4)NC(=O)C(C)(C)O5)n3)ccc21 [Compound 956, N4-(2,2-Dimethyl-3-oxo-4H-benz[1,4]oxazin-6-yl)-5-fluoro-N2-[1-methyl-2-(4-morpholinomethyl)benzimidazol-5-yl]-2,4-pyrimidinediamine]	–	–	< 10	–
C[C@@H]1Oc2ccc(Nc3nc(Nc4ccc5c(c4)nc(CN4CCOCC4)n5C)ncc3F)cc2NC1=O [Compound 957, (S)-5-Fluoro-N2-[1-methyl-2-(4-morpholinomethyl)benzimidazol-5-yl]-N4-(2-methyl-3-oxo-2H,4H-benz[1,4]oxazin-6-yl)- -2,4-pyrimidinediamine]	–	< 10	< 10	–
Cn1c(CN2CCOCC2)nc2cc(Nc3ncc(F)c(Nc4ccc5c(n4)NC(=O)C(C)(C)O5)n3)ccc21 [Compound 958, N4-(2,2-Dimethyl-3-oxo-4H-5-pyrido[1,4]oxazin-6-yl)-5-fluoro-N2-[1-methyl-2-(4-morpholinomethyl)benzimidazol-5-yl]-2,4-pyrimidinediamine]	–	–	< 10	–
COc1ccc(Nc2nc(Nc3ccc4[nH]c(CN5CCOCC5)nc4c3)ncc2F)cc1Cl [Compound 960, N4-(3-Chloro-4-methoxyphenyl)-5-fluoro-N2-[2-(4-morpholinomethyl)-1H-benzimidazol-5-yl]-2,4-pyrimidinediamine]	–	–	< 10	–
CC1(C)Oc2ccc(Nc3nc(Nc4ccc5[nH]c(CN6CCOCC6)nc5c4)ncc3F)cc2NC1=O [Compound 961, N4-(2,2-Dimethyl-3-oxo-4H-benz[1,4]oxazin-6-yl)-5-fluoro-N2-[2-(4-morpholinomethyl)-1H-benzimidazol-5-yl]-2,4-pyrimidinediamine]	< 10	–	–	–

SMILES	IC50 [2] [µM]	IC50 [3] [µM]	IC50 [4] [µM]	other results
CC1(C)Oc2ccc(Nc3nc(Nc4ccc5[nH]c(CN6CCOCC6)nc5c4)ncc3F)nc2NC1=O [Compound 962, N4-(2,2-Dimethyl-3-oxo-4H-5-pyrido[1,4]oxazin-6-yl)-5-fluoro-N2-[2-(4-morpholinomethyl)-1H-benzimidazol-5-yl]-2,4-pyrimidinediamine]	< 10	–	–	–
Cc1nc2cc(Nc3ncc(F)c(Nc4ccc5c(c4)NC(=O)C(C)(C)O5)n3)ccc2n1CCCNS(C)(=O)=O [Compound 963]	< 10	–	–	–
Cc1nc2cc(Nc3ncc(F)c(Nc4ccc5c(n4)NC(=O)C(C)(C)O5)n3)ccc2n1CCCNS(C)(=O)=O [Compound 964, N4-(2,2-Dimethyl-3-oxo-4H-5-pyrido[1,4]oxazin-6-yl)-5-fluoro-N2-[2-methyl-1-[3-(N-methylsulfonylamino)propyl]benzimidazol-5-yl]-2,4-pyrimidinediamine]	–	< 10	< 10	–
Cn1c(CS(C)(=O)=O)nc2cc(Nc3ncc(F)c(Nc4ccc(Cl)c(Cl)c4)n3)ccc21 [Compound 965]	–	–	–	IC50 [1]: < 10 µM
COc1ccc(Nc2nc(Nc3ccc4c(c3)nc(CS(C)(=O)=O)n4C)ncc2F)cc1Cl [Compound 966]	–	–	–	IC50 [1]: < 10 µM
C[C@@H]1Oc2ccc(Nc3nc(Nc4ccc5c(c4)nc(CS(C)(=O)=O)n5C)ncc3F)cc2NC1=O [Compound 968]	< 10	–	–	IC50 [1]: < 10 µM
Cn1c(CS(C)(=O)=O)nc2cc(Nc3ncc(F)c(Nc4ccc5c(n4)NC(=O)C(C)(C)O5)n3)ccc21 [Compound 969, N4-(2,2-Dimethyl-3-oxo-4H-5-pyrido[1,4]oxazin-6-yl)-5-fluoro-N2-{1-methyl-2-[ (methylsulfonyl)methyl]benzimidazol-5-yl}-2,4-pyrimidinediamine]	–	< 10	< 10	–
CCN(CC)Cc1nc2cc(Nc3ncc(F)c(Nc4ccc(Cl)c(Cl)c4)n3)ccc2n1C [Compound 970]	–	–	–	IC50 [1]: < 10 µM
CCN(CC)Cc1nc2cc(Nc3ncc(F)c(Nc4ccc(OC)c(Cl)c4)n3)ccc2n1C [Compound 971]	–	–	–	IC50 [1]: < 10 µM
CCN(CC)Cc1nc2cc(Nc3ncc(F)c(Nc4ccc5c(c4)NC(=O)C(C)(C)O5)n3)ccc2n1C [Compound 972]	< 10	–	–	IC50 [1]: < 10 µM
CCN(CC)Cc1nc2cc(Nc3ncc(F)c(Nc4ccc5c(c4)NC(=O)[C@H](C)O5)n3)ccc2n1C [Compound 973]	< 10	–	–	IC50 [1]: < 10 µM
CCN(CC)Cc1nc2cc(Nc3ncc(F)c(Nc4ccc5c(n4)NC(=O)C(C)(C)O5)n3)ccc2n1C [Compound 974, N2-[2-(N,N-Diethylaminomethyl)-1-methylbenzimidazol-5-yl]-N4-(2,2-dimethyl-3-oxo-4H-5-pyrido[1,4]oxazin-6-yl)-5-fluoro-2,4-pyrimidinediamine]	–	< 10	< 10	–
CC1(C)Oc2ccc(Nc3nc(Nc4ccc5[nH]c(N6CCOCC6)nc5c4)ncc3F)cc2NC1=O [Compound 976, N4-(2,2-Dimethyl-3-oxo-4H-benz[1,4]oxazin-6-yl)-5-fluoro-N2-[2-(4-morpholino)-1H-benzimidazol-5-yl]-2,4-pyrimidinediamine]	< 10	–	–	–
CC1(C)Oc2ccc(Nc3nc(Nc4ccc5[nH]c(N6CCOCC6)nc5c4)ncc3F)nc2NC1=O [Compound 977, N4-(2,2-Dimethyl-3-oxo-4H-5-pyrido[1,4]oxazin-6-yl)-5-fluoro-N2-[2-(4-morpholino)-1H-benzimidazol-5-yl]-2,4-pyrimidinediamine]	< 10	–	–	–
COc1ccc(Nc2nc(Nc3ccc4[nH]c(N5CCOCC5)nc4c3)ncc2F)cc1Cl [Compound 978, N4-(3-Chloro-4-methoxyphenyl)-5-fluoro-N2-[2-(4-morpholino)-1H-benzimidazol-5-yl]-2,4-pyrimidinediamine]	–	–	< 10	–
CNC(=O)COc1cccc(Nc2ncc(F)c(Nc3ccc4c(n3)NC(=O)C(C)(C)O4)n2)c1 [Compound 984, N4-(2,2-Dimethyl-3-oxo-4H-5-pyrid[1,4]oxazin-6-yl)-5-fluoro-N2-[3-(N-methylamino)carbonylmethyleneoxyphenyl]-2,4-pyrimidinediamine Benzensulfonic Acid Salt]	–	–	–	IC50 (Homo sapiens, Mast cell, read-out: LD Tryptase, CHMC, IgE, 3 pt): < 10 µM; IC50 (Homo sapiens, Mast cell, read-out: LD Tryptase, CHMC, IgE, 8 pt): < 10 µM
CNC(=O)COc1cccc(Nc2ncc(F)c(Nc3ccc4c(n3)NC(=O)C(C)(C)O4)n2)c1 [Compound 986, N4-(2,2-Dimethyl-3-oxo-4H-5-pyrid[1,4]oxazin-6-yl)-5-fluoro-N2-[3-(N-methylamino)carbonylmethyleneoxyphenyl]-2,4-pyrimidinediamine Hydrogen Chloride Salt]	–	< 10	< 10	–
